According to the NIST ThermoML archive (doi:10.1016/j.jct.2016.04.003):

Assay: refractive index (Na D-line) (dimensionless); xn = mol fraction of the nth substance listed
Settings: 99 kPa, Liquid, Standard Abbe refractometry

CCCC[n+]1ccccc1.F[B-](F)(F)F [1-butylpyridinium tetrafluoroborate] + O
refractive index
Settings | 293.15 K | 303.15 K | 313.15 K | 323.15 K
x1 = 0.0165 | 1.34819 | 1.34644 | 1.34468 | 1.34263
x1 = 0.0379 | 1.36348 | 1.3612 | 1.35896 | 1.35635
x1 = 0.0863 | 1.38639 | 1.38392 | 1.38128 | 1.37835
x1 = 0.101 | 1.39141 | 1.38881 | 1.38613 | 1.38331
x1 = 0.134 | 1.40063 | 1.39805 | 1.39527 | 1.3926
x1 = 0.243 | 1.41888 | 1.41639 | 1.41376 | 1.41106
x1 = 0.289 | 1.42371 | 1.42115 | 1.41853 | 1.41585
x1 = 0.3456 | 1.42826 | 1.42571 | 1.42304 | 1.42041
x1 = 0.4217 | 1.43287 | 1.4303 | 1.42763 | 1.42496
x1 = 0.5485 | 1.43815 | 1.43558 | 1.43295 | 1.43025
x1 = 0.6029 | 1.43987 | 1.43726 | 1.43463 | 1.43194
x1 = 0.7232 | 1.44283 | 1.44021 | 1.43755 | 1.43489
x1 = 0.8005 | 1.44431 | 1.44168 | 1.43905 | 1.43637
x1 = 0.8575 | 1.44526 | 1.44261 | 1.43999 | 1.43731
x1 = 0.9315 | 1.44633 | 1.44368 | 1.44105 | 1.43838
x1 = 1 | 1.44719 | 1.44454 | 1.44191 | 1.43923

CCC[n+]1ccccc1.F[B-](F)(F)F [1-propylpyridinium tetrafluoroborate] + O
refractive index
Settings | 293.15 K | 303.15 K | 313.15 K | 323.15 K
x1 = 0.0185 | 1.34795 | 1.34613 | 1.34407 | 1.34187
x1 = 0.0287 | 1.3549 | 1.35282 | 1.35055 | 1.34817
x1 = 0.0466 | 1.36529 | 1.36297 | 1.36049 | 1.35792
x1 = 0.0766 | 1.37888 | 1.37637 | 1.37374 | 1.37105
x1 = 0.0964 | 1.38592 | 1.38337 | 1.38071 | 1.37801
x1 = 0.2011 | 1.40941 | 1.40683 | 1.40419 | 1.40152
x1 = 0.2858 | 1.41984 | 1.41727 | 1.41465 | 1.41202
x1 = 0.3993 | 1.42862 | 1.42604 | 1.42343 | 1.42083
x1 = 0.4979 | 1.4337 | 1.4311 | 1.42848 | 1.42588
x1 = 0.5772 | 1.43677 | 1.43415 | 1.43152 | 1.42891
x1 = 0.6015 | 1.43757 | 1.43495 | 1.43233 | 1.42971
x1 = 0.6695 | 1.43957 | 1.43694 | 1.4343 | 1.43169
x1 = 0.7309 | 1.44111 | 1.43847 | 1.43583 | 1.43321
x1 = 0.7771 | 1.44212 | 1.43948 | 1.43685 | 1.43422
x1 = 0.8395 | 1.44335 | 1.4407 | 1.43806 | 1.43543
x1 = 0.9054 | 1.44449 | 1.44183 | 1.43918 | 1.43656
x1 = 0.9633 | 1.44537 | 1.44271 | 1.44006 | 1.43742
x1 = 1 | 1.44588 | 1.44322 | 1.44057 | 1.43793
